One assay has as its target IDH1 R132C (Homo sapiens, UniProt O75874, R132C). Briefly: Effect on IDH1 R132C enzyme activity (NADPH consumption, diaphorase/resazurin fluorescence). The format is biochemical. The note with it: 80 ng IDH1 R132C, α-KG 2 mM, NADPH 20 μM, 60 min preincubation. Here is the method: (§1) Test method: The enzyme activity of IDH1 converting α-KG to 2HG was measured by the consumption of NADPH. After the enzymatic reaction finished, the amount of residual NADPH can be reflected by fluorescence signal generated by the addition of catalytically excessive diphhorase and reazurin.
50 μL mixed liquid of substrate α-KG and NADPH (final concentration of substrate α-KG was 2 mM, final concentration of NADPH was 20 μM), and the plate was incubated in dark for 60 min at room temperature. Detection reaction: 50 μL 1×detection buffer diluted 0.01 unit diabase and 30 μM resazurin were added into each well, and the mixture was incubated in dark at room temperature for 10 min. […] IC50 value was calculated by GraphPad Prism software.
Background: Alamar Blue is a resazurin reagent that responds to reducing activity.

A further assay addresses IDH1 R132H (Homo sapiens, UniProt O75874, R132H). Briefly: Effect on IDH1 R132H enzyme activity (NADPH consumption, diaphorase/resazurin fluorescence). In kind it is biochemical. The following applies: 100 ng IDH1 R132H, α-KG 1 mM, NADPH 20 μM, 60 min preincubation. The procedure:
as §1
50 μL mixed liquid of substrate α-KG and NADPH (final concentration of substrate α-KG was 1 mM, final concentration of NADPH was 20 μM), and the mixture was incubated in dark for 60 min at room temperature. Detection reaction: 50 μL 1×detection buffer diluted 0.01 unit diabase and 30 μM resazurin were added into each well, and the mixture was incubated in dark at room temperature for 10 min. […] IC50 value was calculated by GraphPad Prism software.

Assay [1] concerns 2HG of fibrosarcoma cell line HT1080 expressing IDH1 mutant IDH1-R132C. The assay is described as follows: Inhibition of 2HG of fibrosarcoma cell line HT1080. The format is cell-based. The note with it: Homo sapiens, HT-1080; HT1080 cells, 48 hours with compound, 2HG in cell supernatant; read-out: HT1080 2HG inhibitory IC50. The procedure: In this experiment, the inhibitory activity of the compound of the disclosure on the concentration level of 2HG of the fibrosarcoma cell line HT1080 was determined by the following method.
The cells were digested with trypsin and inoculated into a 24 well cell culture plate with a density of 10000 cells/well. The cells were cultured in a 5% CO2 cell incubator at 37° C. After overnight culture, the test compound was added to the cells. The final concentration of DMSO was 0.1%, and DMSO was used as control. The plate was then placed in a cell incubator and cultured for 48 hours.
Detection of 2HG: 2-HG was measured by PicoProbe™ D-2-Hydroxyglutarate (D2HG) Assay Kit of BioVision. 500 uL cell supernatant was taken from each well and added to a 10 kD centrifuge column, 12000 g, and centrifuged for 10 minutes to remove the effect of enzyme activity. […] IC50 value was calculated by GraphPad Prism software.
The inhibition rate of the sample was obtained by the following formula: […]
IC50 value was calculated by GraphPad Prism software.

As a reminder, the IC50 is the concentration needed to halve the response being measured.

Sequence of IDH1 R132H (O75874 whole entry R132H): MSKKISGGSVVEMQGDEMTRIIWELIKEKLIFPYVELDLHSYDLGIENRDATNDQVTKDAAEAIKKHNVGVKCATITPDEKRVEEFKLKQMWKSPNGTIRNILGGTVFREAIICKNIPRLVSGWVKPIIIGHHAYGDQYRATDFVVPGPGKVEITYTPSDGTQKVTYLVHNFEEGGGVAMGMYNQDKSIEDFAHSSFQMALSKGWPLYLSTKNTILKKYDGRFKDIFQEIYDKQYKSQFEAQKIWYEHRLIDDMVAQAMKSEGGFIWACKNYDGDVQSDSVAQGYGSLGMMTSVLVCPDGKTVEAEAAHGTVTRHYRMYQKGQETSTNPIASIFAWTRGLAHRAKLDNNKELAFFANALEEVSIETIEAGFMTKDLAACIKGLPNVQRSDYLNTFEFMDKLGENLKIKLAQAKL
Sequence of IDH1 R132C (O75874 whole entry R132C): as the sequence (O75874 whole entry R132H) above, with H132C counted along it

Regarding `CC(C)[C@@H]1N(c2ccnc(N[C@@H](C)c3ncn4c3CCc3cc(C(F)(F)F)ccc3-4)n2)C(=O)OC1(C)C` [Compound 18, (S)-4-isopropyl-5,5-dimethyl-3-(2-(((S)-1-(7-trifluoromethyl-4,5-dihydroimidazo[1,5-a]quinolin-3-yl)ethyl)amino)pyrimidin-4-yl)oxazolidin-2-one], the half-maximal inhibitory concentration (IC50) is below 50 nM at IDH1 R132C, 50 to 500 nM at IDH1 R132H and 26 nM in assay [1].
Regarding `C[C@H](Nc1nccc(N2C(=O)OC3(COC3)[C@@H]2c2ccccc2)n1)c1ncn2c1CCc1cc(C(F)(F)F)ccc1-2` [Compound 16, (S)-8-phenyl-7-(2-(((S)-1-(7-trifluoromethyl-4,5-dihydroimidazo[1,5-a]quinolin-3-yl)ethyl)amino)pyrimidin-4-yl)-2,5-dioxa-7-azaspiro[3.4]octan-6-one], the half-maximal inhibitory concentration (IC50) at IDH1 R132C is below 50 nM; against IDH1 R132H, below 50 nM; in assay [1], 140 nM.
On to `CC(C)[C@H]1COC(=O)N1c1ccnc(N[C@@H](C)c2ncn3c2CSc2cc(C(F)(F)F)ccc2-3)n1` [Compound 12, (S)-4-isopropyl-3-(2-(((S)-1-(7-trifluoromethyl-4H-benzo[b]imidazo[1,5-d][1,4]thiazin-3-yl)ethyl)amino)pyrimidin-4-yl)oxazolidin-2-one], for which the concentration for half-maximal inhibition (IC50) against IDH1 R132C was below 50 nM; on IDH1 R132H, below 50 nM; in assay [1], 24 nM.
As for `CC(C)[C@H]1C(C)OC(=O)N1c1ccnc(N[C@@H](C)c2ncn3c2CCc2cc(C(F)(F)F)ccc2-3)n1` (stereo partly drawn) [Compound 17, (4S)-4-isopropyl-5-methyl-3-(2-(((S)-1-(7-trifluoromethyl-4,5-dihydroimidazo[1,5-a]quinolin-3-yl)ethyl)amino)pyrimidin-4-yl)oxazolidin-2-one], the IC50 against IDH1 R132C is below 50 nM; at IDH1 R132H, below 50 nM; in assay [1], 87 nM.
With `C[C@H](Nc1nccc(N2C(=O)OC[C@@H]2[C@H](C)F)n1)c1ncn2c1COc1cc(C(F)(F)F)ccc1-2` [Compound 2, (R)-4-((S)-1-fluoroethyl)-3-(2-(((S)-1-(7-trifluoromethyl-4H-benzo[b]imidazo[1,5-d][1,4]oxazin-3-yl)ethyl)amino)pyrimidin-4-yl)oxazolidin-2-one], the concentration for half-maximal inhibition (IC50) against IDH1 R132C was below 50 nM; against IDH1 R132H, below 50 nM; in assay [1], 12 nM.
As to `C[C@H](Nc1nccc(N2C(=O)OC[C@@H]2C2CC2)n1)c1ncn2c1COc1cc(Cl)ccc1-2` [Compound 22, (S)-3-(2-(((S)-1-(7-chloro-4H-benzo[b]imidazo[1,5-d][1,4]oxazin-3-yl)ethyl)amino)pyrimidin-4-yl)-4-cyclopropyloxazolidin-2-one], the 50% inhibitory concentration (IC50) at IDH1 R132C is below 50 nM; against IDH1 R132H, 50 to 500 nM; in assay [1] it was 104 nM.
As for `C[C@H](Nc1nc(Cl)cc(N2C(=O)OC[C@@H]2[C@H](C)F)n1)c1ncn2c1CCc1cc(C(F)(F)F)ccc1-2` [Compound 7, (R)-3-(6-chloro-2-(((S)-1-(7-trifluoromethyl-4,5-dihydroimidazo[1,5-a]quinolin-3-yl)ethyl)amino)pyrimidin-4-yl)-4-((S)-1-fluoroethyl)oxazolidin-2-one], the values for the IC50 (against IDH1 R132C; on IDH1 R132H; in assay [1]) were below 50 nM, below 50 nM and 35 nM, respectively.
Take `C[C@H](Nc1nccc(N2C(=O)OC[C@@H]2c2ccccc2)n1)c1ncn2c1CCc1cc(C(F)(F)F)ccc1-2` [Compound 20, (S)-4-phenyl-3-(2-(((S)-1-(7-trifluoromethyl-4,5-dihydroimidazo[1,5-a]quinolin-3-yl)ethyl)amino)pyrimidin-4-yl)oxazolidin-2-one]: the half-inhibitory concentration (IC50) against IDH1 R132C is below 50 nM; on IDH1 R132H, below 50 nM; in assay [1], 7 nM.
For the compound `C[C@H](Nc1nccc(N2C(=O)OC[C@@H]2[C@H](C)F)n1)c1ncn2c1sc1cc(C(F)(F)F)ccc12` [Compound 8, (R)-4-((S)-1-fluoroethyl)-3-(2-(((S)-1-(6-trifluoromethylbenzo[d]imidazo[5,1-b]thiazol-3-yl)ethyl)amino)pyrimidin-4-yl)oxazolidin-2-one], the half-inhibitory concentration (IC50) was below 50 nM on IDH1 R132C, below 50 nM on IDH1 R132H and 10 nM in assay [1].
For the compound `C[C@H](Nc1nccc(N2C(=O)OC[C@@H]2[C@H](C)F)n1)c1ncn2c1CCc1ccc(C(F)(F)F)cc1-2` [Compound 28, (R)-4-((S)-1-fluoroethyl)-3-(2-(((S)-1-(8-trifluoromethyl-4,5-dihydroimidazo[1,5-a]quinolin-3-yl)ethyl)amino)pyrimidin-4-yl)oxazolidin-2-one], the figures for the IC50 (against IDH1 R132C; on IDH1 R132H; in assay [1]) were below 50 nM, below 50 nM and 13 nM, respectively.
